According to PubChem BioAssay (NCI):
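Exposure lasted 48 hours, with cells grown in 96-well plates and compounds tested at five concentrations. Here, GI50 denotes the concentration required for 50% inhibition of growth. The concentration for full growth arrest is given as TGI.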

Key:
Assay in all cases: inhibition of tumour cell growth, NCI panel, 48 h
[1] = system: 786-0 renal
[2] = system: A498 renal
[3] = system: A549 NSCLC
[4] = system: ACHN renal
[5] = system: BT-549 breast
[6] = system: CAKI-1 renal
[7] = system: CCRF-CEM leukemia
[8] = system: COLO 205 colon
[9] = system: DU-145 prostate
[10] = system: HCC-2998 colon
[11] = system: HCT-116 colon
[12] = system: HCT-15 colon
[13] = system: HL-60(TB) leukemia
[14] = system: HOP-62 NSCLC
[15] = system: HOP-92 NSCLC
[16] = system: HS 578T breast
[17] = system: HT29 colon
[18] = system: IGROV1 ovarian
[19] = system: K-562 leukemia
[20] = system: KM12 colon
[21] = system: LOX IMVI melanoma
[22] = system: M14 melanoma
[23] = system: MALME-3M melanoma
[24] = system: MCF7 breast
[25] = system: MDA-MB-231 breast
[26] = system: MDA-MB-435
[27] = system: MOLT-4 leukemia
[28] = system: NCI-H226 lung
[29] = system: NCI-H23 lung
[30] = system: NCI-H460 lung
[31] = system: NCI-H522 lung
[32] = system: NCI/ADR-RES ovarian
[33] = system: OVCAR-3 ovarian
[34] = system: OVCAR-4 ovarian
[35] = system: OVCAR-5 ovarian
[36] = system: OVCAR-8 ovarian
[37] = system: PC-3 prostate
[38] = system: RPMI-8226 leukemia
[39] = system: RXF 393 renal
[40] = system: SF-268 CNS
[41] = system: SF-295 CNS
[42] = system: SF-539 CNS
[43] = system: SK-MEL-2 melanoma
[44] = system: SK-MEL-28 melanoma
[45] = system: SK-MEL-5 melanoma
[46] = system: SK-OV-3 ovarian
[47] = system: SN12C renal
[48] = system: SNB-19 CNS
[49] = system: SNB-75 CNS
[50] = system: SR leukemia
[51] = system: SW-620 colon
[52] = system: T-47D breast
[53] = system: TK-10 renal
[54] = system: U251 CNS
[55] = system: UACC-257 melanoma
[56] = system: UACC-62 melanoma
[57] = system: UO-31 renal

COc1ccc2c(ccc3oc([N+](=O)[O-])cc32)c1
GI50 [1]: 0.218 µM | TGI [1]: 0.667 µM | GI50 [2]: 0.0852 µM | TGI [2]: 0.305 µM | GI50 [3]: 0.274 µM | TGI [3]: 1.04 µM | GI50 [4]: 0.0274 µM | TGI [4]: 0.232 µM | GI50 [5]: 0.187 µM | TGI [5]: 0.521 µM | GI50 [6]: 0.128 µM | TGI [6]: 0.755 µM | GI50 [7]: 0.09 µM | TGI [7]: > 40.7 µM | GI50 [8]: 0.172 µM | TGI [8]: 0.389 µM | GI50 [9]: 0.191 µM | TGI [9]: 1.14 µM | GI50 [10]: 0.177 µM | TGI [10]: 0.418 µM | GI50 [11]: 0.0487 µM | TGI [11]: 0.92 µM | GI50 [12]: 0.221 µM | TGI [12]: 1.53 µM | GI50 [13]: 0.0514 µM | TGI [13]: 0.487 µM | GI50 [14]: 0.412 µM | TGI [14]: 2.48 µM | GI50 [15]: 0.129 µM | TGI [15]: 0.407 µM | GI50 [16]: 0.301 µM | TGI [16]: 1.58 µM | GI50 [17]: 0.202 µM | TGI [17]: 0.874 µM | GI50 [18]: 0.199 µM | TGI [18]: 3.47 µM | GI50 [19]: 0.0647 µM | TGI [19]: 6.14 µM | GI50 [20]: 0.288 µM | TGI [20]: 1.21 µM | GI50 [21]: 0.0551 µM | TGI [21]: 0.312 µM | GI50 [22]: 0.0454 µM | TGI [22]: 0.186 µM | GI50 [23]: 0.137 µM | TGI [23]: 0.314 µM | GI50 [24]: 0.176 µM | TGI [24]: 3 µM | GI50 [25]: 0.167 µM | TGI [25]: 0.596 µM | GI50 [26]: 0.047 µM | TGI [26]: 0.186 µM | GI50 [27]: 0.0378 µM | TGI [27]: 2.69 µM | GI50 [28]: 0.193 µM | TGI [28]: 0.629 µM | GI50 [29]: 0.203 µM | TGI [29]: 0.605 µM | GI50 [30]: 0.181 µM | TGI [30]: 0.85 µM | GI50 [31]: 0.0952 µM | TGI [31]: 0.319 µM | GI50 [32]: 0.177 µM | TGI [32]: 1.05 µM | GI50 [33]: 0.225 µM | TGI [33]: 0.57 µM | GI50 [34]: 0.422 µM | TGI [34]: 2.01 µM | GI50 [35]: 0.364 µM | TGI [35]: 4.74 µM | GI50 [36]: 0.18 µM | TGI [36]: 1.2 µM | GI50 [37]: 0.305 µM | TGI [37]: 3.63 µM | GI50 [38]: 0.247 µM | TGI [38]: 0.81 µM | GI50 [39]: 0.0702 µM | TGI [39]: 0.223 µM | GI50 [40]: 0.176 µM | TGI [40]: 1.87 µM | GI50 [41]: 0.302 µM | TGI [41]: 1.9 µM | GI50 [42]: 0.225 µM | TGI [42]: 0.595 µM | GI50 [43]: 0.107 µM | TGI [43]: 0.292 µM | GI50 [44]: 0.118 µM | TGI [44]: 0.323 µM | GI50 [45]: 0.0413 µM | TGI [45]: 0.142 µM | GI50 [46]: 0.231 µM | TGI [46]: 1.84 µM | GI50 [47]: 0.274 µM | TGI [47]: 7.03 µM | GI50 [48]: 0.294 µM | TGI [48]: 2.96 µM | GI50 [49]: 0.201 µM | TGI [49]: 0.573 µM | GI50 [50]: 0.0748 µM | TGI [50]: 17.6 µM | GI50 [51]: 0.178 µM | TGI [51]: 10.8 µM | GI50 [52]: 0.448 µM | TGI [52]: 8.05 µM | GI50 [53]: 0.278 µM | TGI [53]: 0.854 µM | GI50 [54]: 0.197 µM | TGI [54]: 0.578 µM | GI50 [55]: 0.137 µM | TGI [55]: 0.43 µM | GI50 [56]: 0.158 µM | TGI [56]: 0.333 µM | GI50 [57]: 0.224 µM | TGI [57]: 0.763 µM
